Marks after values point to notes of the source that are not given here.
Experiments:
Assay type in all cases: cell-based
Nannochloropsis [1] = experiment: Exposure of Nannochloropsis cultures to extremely high (shock) levels of ozone; details: above 30 milligrams/liter ozone, exposure not prolonged
Source text: At alternative step 135, if the level or amount of predators and/or invaders exceeds an actual or desired level, the ozone concentration of the algae cultivation system may be adjusted by applying an effective “shock” amount of ozone. The ozone concentration of the algae cultivation system may be adjusted via the inlet stream that feeds into the algae cultivation system. Applying an effective shock amount of ozone to the inlet stream may result in an initial ozone concentration of the inlet stream above 10 milligrams/liter, which feeds into the algae cultivation system. An unexpected result observed via the experiments described herein is that Nannochloropsis cultures exposed to extremely high levels of ozone (above 30 milligrams/liter) recover (i.e., the Nannochloropsis cultures were not killed), provided the exposure to the ozone is not prolonged. […] Note: steps 130 and 135 may be performed in alternating or rotating fashion, provided the ozone concentration is properly observed.

diatoms [2] = experiment: Example One: pond culture passed through ozone generator, effect on diatoms; details: ozonator setting 50% (4.6 mg/L) or 100% (9.6 mg/L)
Procedure: (§1) In the following examples, Nannochloropsis was grown in outdoor, open, three-square meter ponds in Vero Beach, Florida. The climate in Vero Beach is semitropical, with mild, cool winters and hot, humid summers. It is a challenging climate for keeping outdoor algal cultures stable and productive. The overnight warmth encourages predation by protozoa, rotifers, and crustaceans. The humidity allows the airborne transport of competing algae, and thus increases the rate of invasion.
(§2) Ozone was added to an algal cultivation system using a commercial ozone generator with accompanying liquid pump, venturi, and air dryer. The machine used was a small model capable of generating 10 grams of ozone per hour. The flow rate of liquid through the generator was about 16 liters per minute. At fifty percent (50%) of maximal ozone generation, the concentration of ozone in the liquid after one pass through the ozone generator was 4.6 mg/L, and at 100% was 9.6 mg/L.
(§3) Two three-square meter ponds were started by taking 500L of culture from a larger pond and passing it through the ozone generator once. One pond was started with the ozonator setting at 50%, the other pond was started with the ozonator setting at 100%. The original algal culture had numerous clumps of Nannochloropsis, cell debris, various diatoms, and some ciliated protozoa grazers.

grazers = experiment: Example Two: ozone skid tests on outdoor ponds, ozone disinfection of grazers
Procedure: as §1
(§4) An ozone skid was assembled on-site utilizing a dry air feed ozone generator capable of producing 10 g/h of ozone.
(§5) A small pump was connected to the system with the ozone added to the liquid recycle line via a Mazzei gas to liquid injector capable of flow rates between 13.2-28.35 1pm@pressures ranging from 15-25 psi. Tests were run on ponds D4 (3 m^2 surface area), MP1 (3 m^2 surface area), and 25A (25 m^2 surface area) with salinities ranging from 20-24 ppt using flow rates of 13.2 and 15.6 1pm@20 psi. The ozonator is equipped with a variable transformer that offers the ability to vary ozone dosage between 0-100%. Tests were run at ozone concentrations of 25%, 50%, 75%, and 100% at flow rates of 13.2 and 15.6 1pm.
(§6) Nannochloropsis was unaffected by ozone at these dosages.
(§7) Using the skid mounted system as an in-situ transfer treatment to inoculate new ponds was also tested with very favorable results. Both D4 (3 m^2) and MP1 (3 m^2) were filled with ozone treated inoculums from one of the larger ponds that had large amounts of clumps and decreasing productivity. The effect of this was that most of the clumps (>80%) were broken up and the grazers present inside of the clumps were destroyed as well as free grazers and diatoms in the solution with no effect on Nannochloropsis.

Nannochloropsis [3] = experiment: Example One: pond culture passed through ozone generator, effect on Nannochloropsis
Procedure: as §1, §2, §3
The two algal cultures were allowed to grow for two days without dilution, but with nutrient addition to see whether the ozone treatment changed the production of biomass and the subsequent stability of the cultures. After two days of batch growth, each pond was diluted one third per day and recirculated each day through the ozone generator for 30 minutes. During this time period about 500L, or one volume equivalent was treated. As before, one pond was passed through the machine at 50% setting and one at 100% setting.

Nannochloropsis [4] = experiment: Example Two: ozone skid tests on outdoor ponds D4, MP1, 25A, Nannochloropsis productivity and resistance
Procedure: as §1, §4, §5
Productivity results of the three pond systems run at the high concentrations are listed below:
as §6, §7

[5] = tested on: ciliated protozoa grazers; experiment: Example One: pond culture passed through ozone generator, effect on grazers; details: ozonator setting 50% (4.6 mg/L) or 100% (9.6 mg/L)
Procedure: as §1, §2, §3

diatoms [6] = experiment: Example Two: ozone skid tests on outdoor ponds, ozone disinfection of diatoms
Procedure: as §1, §4, §5, §6, §7

[7] = 3 m^2 ponds D4 and MP1, concentrations of ozone tested
[8] = 25 m^2 pond 25A, side stream treated
[9] = in-situ transfer treatment of inoculums for D4 and MP1

O=[O+][O-] [Ozone, ozone]
Outcome of Nannochloropsis cultures after extremely high levels of ozone (Nannochloropsis [1]): recover
Diatoms after one pass through the ozone generator (diatoms [2]): killed
Effect of ozone exposure on grazers present (grazers; [7]): adversely affected after exposure to ozone resulting in their elimination
Effect of ozone exposure on grazers (grazers; [8]): similarly affected
Grazers inside of the clumps and free grazers in the solution (grazers; [9]): destroyed
Survival of Nannochloropsis after one pass through the ozone generator (Nannochloropsis [3]; 500L culture, one pass, ozonator setting 50% (4.6 mg/L) or 100% (9.6 mg/L)): only single cells of Nannochloropsis survived
Ill effects from the ozone on Nannochloropsis ponds (Nannochloropsis [3]; both ponds (50% and 100% setting), daily 30 minute recirculation for three days): no ill effects
Production of biomass above that of a control pond (Nannochloropsis [3]; both ponds (50% and 100% setting), recirculated 30 minutes per day through ozone generator for three days, diluted one third per day): 20%
Clumps of Nannochloropsis after one pass through the ozone generator (Nannochloropsis [3]; one pass, ozonator setting 50% (4.6 mg/L) or 100% (9.6 mg/L)): completely broken up
Effect of ozone on Nannochloropsis (Nannochloropsis [4]; 3 m^2 ponds D4 and MP1, at these dosages): unaffected
Clumping after exposure to ozone (Nannochloropsis [4]; [8]): clumping did not become as dramatic of a problem
Productivity (Nannochloropsis [4]; Pond 25A (25 m^2), Jul. 09, 2008, total 5950 mg O3, 5615 liters recycled): 16.1 g/m^2/day
Productivity (Nannochloropsis [4]; Pond 25A (25 m^2), Jul. 10, 2008, total 5950 mg O3, 5615 liters recycled): 4.6 g/m^2/day
Productivity (Nannochloropsis [4]; Pond 25A (25 m^2), Jul. 11, 2008, total 5950 mg O3, 5615 liters recycled, pond temperature reached 39° C.): −8.3* g/m^2/day
Productivity (Nannochloropsis [4]; Pond 25A (25 m^2), Jul. 12, 2008, total 5950 mg O3, 5615 liters recycled): 12.2 g/m^2/day
Productivity (Nannochloropsis [4]; Pond 25A (25 m^2), Jul. 13, 2008, total 5950 mg O3, 5615 liters recycled): 10.7 g/m^2/day
Productivity (Nannochloropsis [4]; Pond 25A (25 m^2), Jul. 14, 2008, total 5950 mg O3, 5615 liters recycled): 8.0 g/m^2/day
Productivity (Nannochloropsis [4]; Pond D4 (3 m^2), Jul. 09, 2008, total 500 mg O3, 470 liters recycled): 15.4 g/m^2/day
Productivity (Nannochloropsis [4]; Pond D4 (3 m^2), Jul. 10, 2008, total 500 mg O3, 470 liters recycled): 16.1 g/m^2/day
Productivity (Nannochloropsis [4]; Pond D4 (3 m^2), Jul. 11, 2008, total 500 mg O3, 470 liters recycled): 16.0 g/m^2/day
Productivity (Nannochloropsis [4]; Pond D4 (3 m^2), Jul. 12, 2008, total 500 mg O3, 470 liters recycled): 8.4 g/m^2/day
Productivity (Nannochloropsis [4]; Pond D4 (3 m^2), Jul. 13, 2008, total 500 mg O3, 470 liters recycled): 12.2 g/m^2/day
Productivity (Nannochloropsis [4]; Pond D4 (3 m^2), Jul. 14, 2008, total 500 mg O3, 470 liters recycled): 14.9 g/m^2/day
Productivity (Nannochloropsis [4]; Pond MP1 (3 m^2), Jul. 09, 2008, total 500 mg O3, 470 liters recycled): 13.3 g/m^2/day
Productivity (Nannochloropsis [4]; Pond MP1 (3 m^2), Jul. 10, 2008, total 500 mg O3, 470 liters recycled): 17.2 g/m^2/day
Productivity (Nannochloropsis [4]; Pond MP1 (3 m^2), Jul. 11, 2008, total 500 mg O3, 470 liters recycled): 16.9 g/m^2/day
Productivity (Nannochloropsis [4]; Pond MP1 (3 m^2), Jul. 12, 2008, total 500 mg O3, 470 liters recycled): 9.0 g/m^2/day
Productivity (Nannochloropsis [4]; Pond MP1 (3 m^2), Jul. 13, 2008, total 500 mg O3, 470 liters recycled): 16.0 g/m^2/day
Productivity (Nannochloropsis [4]; Pond MP1 (3 m^2), Jul. 14, 2008, total 500 mg O3, 470 liters recycled): 13.4 g/m^2/day
Effect on Nannochloropsis (Nannochloropsis [4]; [9]): no effect
Clumps broken up (Nannochloropsis [4]; in-situ transfer treatment: D4 and MP1 filled with ozone treated inoculums from a larger pond with large amounts of clumps): > 80%
Clump formation after daily repeated exposure to ozone (Nannochloropsis [4]; small 3 m^2 ponds D4 and MP1): clumps did form in large numbers
Grazers after one pass through the ozone generator [5]: killed
Effect of ozone exposure on diatoms present (diatoms [6]; [7]): adversely affected after exposure to ozone resulting in their elimination
Effect of ozone exposure on diatoms (diatoms [6]; [8]): similarly affected
Free diatoms in the solution (diatoms [6]; [9]): destroyed
